From article PMC10544575, “Inhibitory mechanism of vortioxetine on CYP450 enzymes in human and rat liver microsomes” (Frontiers in Pharmacology, 2023)
pIC50: −log10 of the molar value. Read-outs that look alike come from different tables or passages of the source.

How the values were obtained:
[1] = no reference given; cited from earlier work
CYP2C19 = CYP2C19 (Homo sapiens, UniProt P33261); assay: IC50-shift experiment, CYP2C19 in HLMs; format: in vitro ADME; parameters: 0.20 mg/mL HLMs or 0.20 mg/mL RLMs; from tissue; host or cells: human liver microsomes; conditions: for pIC50: mephenytoin 90 μM
Sequence of CYP2C19 (P33261 whole entry): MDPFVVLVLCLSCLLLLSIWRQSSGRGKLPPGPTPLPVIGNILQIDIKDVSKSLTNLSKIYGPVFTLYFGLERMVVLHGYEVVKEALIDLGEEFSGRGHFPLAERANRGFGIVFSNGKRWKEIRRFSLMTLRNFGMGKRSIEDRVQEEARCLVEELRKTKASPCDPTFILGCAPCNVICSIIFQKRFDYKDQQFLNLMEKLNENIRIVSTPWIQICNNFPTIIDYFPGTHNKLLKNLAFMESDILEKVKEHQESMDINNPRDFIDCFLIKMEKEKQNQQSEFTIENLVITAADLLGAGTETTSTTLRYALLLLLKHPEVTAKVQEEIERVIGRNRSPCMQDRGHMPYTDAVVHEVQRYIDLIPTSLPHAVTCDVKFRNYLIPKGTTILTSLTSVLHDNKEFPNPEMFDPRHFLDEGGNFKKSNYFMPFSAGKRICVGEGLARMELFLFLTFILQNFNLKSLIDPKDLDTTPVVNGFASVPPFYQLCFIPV
Method: (§1) The components of the incubation system were as follows: 0.20 mg/mL HLMs or 0.20 mg/mL RLMs, 0.1 M Tris-HCl, vortioxetine, and the probe substrates of each enzyme. In the study of Km’s (Michaelis–Menten constant) experiment, midazolam (1, 2, 5, 10, 20, 50 and 100 μM in HLMs and RLMs) corresponded to CYP3A4/3A; bupropion (10, 20, 50, 100, 200, 500, 1,000 and 2000 μM in HLMs; 1, 2, 5, 10, 20, 50, 100 and 200 μM in RLMs) corresponded to CYP2B6/2B; amodiaquine (5, 10, 20, 50, 100 and 200 μM in HLMs; 10, 20, 50, 100, 200, 500 μM in RLMs) corresponded to CYP2C8/CYP2C-1; losartan (1, 2, 5, 10, 20, 50, 100, 200 μM in HLMs; 10, 20, 50, 100, 200, 500 and 1,000 μM in RLMs) corresponded to CYP2C9/CYP2C-2; mephenytoin (20, 50, 100, 200, 500 and 1,000 μM in HLMs; 5, 10, 20, 50, 100, 200, 500 and 1,000 μM in RLMs) corresponded to CYP2C19/CYP2C-3; and dextromethorphan (1, 2, 5, 10, 20, 50 and 100 μM in HLMs and RLMs) corresponded to CYP2D6/CYP2D. After 5.0 min of preincubation in the shaking water bath, the reaction was started with the addition of 1.0 mM NADPH. The incubated temperature at 37°C for 30 min. After the incubation, the enzyme reaction was stopped by cooling at −80°C, and 200 μL of acetonitrile and 20 μL of internal standard diazepam (200 ng/mL) were added for protein precipitation. The solution was fully vortexed and centrifuged at 13,000 × rpm for 10 min, and the supernatant was collected for data analysis by UPLC-MS/MS.
IC50-shift was used to investigate whether the drug produced time-dependent inhibition (TDI) of the enzyme. […] The above mixture was then incubated for another 30 min. During the experiment, the individual substrates midazolam (4 μM), bupropion (40 μM), amodiaquine (3 μM), losartan (8 μM), mephenytoin (90 μM), and dextromethorphan (10 μM) were determined with vortioxetine IC50-shift in HLMs. […] Other experimental conditions were the same as above.
All experiments results were detected by UPLC-MS/MS, which equipped with a Waters Acquity UPLC system (Milford, MA, United States) and a Waters Xevo TQ-S triple quadrupole tandem mass spectrometer with an electrospray ionization source (Milford, MA, United States). The chromatographic separation was performed on a Waters ACQUITY UPLC BEH C18 column (2.1 × 50 mm, 1.7 μm, Waters Corp.) at 40°C. The mobile phase was consisted of acetonitrile (A) and 0.1% formic acid in water (B). The gradient elution at a flow rate of 0.4 mL/min was conducted as follows: 0–0.5 min, 10% A; 0.5–1.0 min, 10%–90% A; 1.0–2.0 min, 90% A; 2.0–2.1 min, 90%–10% A, and 2.1–3.0 min, 10% A. The relevant analysis parameters were shown in Table 1.
(§2) IC50 values and enzyme kinetic parameters were calculated by Graphpad Prism 6.0 (GraphPad software Inc., CA, United States). […] Data for each experiment were expressed as mean ± SD (n = 3).

CYP2C-3 = assay: IC50 of vortioxetine on CYP2C-3 (mephenytoin) in RLMs; format: in vitro ADME; conditions: rat, rat liver microsomes, probe mephenytoin
Method: as §1, with “After 5.0 min of preincubation in the shaking water bath, the reaction was started with the addition of 1.0 mM NADPH. The incubated temperature at 37°C for 30 min. After the incubation, the enzyme reaction was stopped by cooling at −80°C, and 200 μL of acetonitrile and 20 μL of internal standard diazepam (200 ng/mL) were added for protein precipitation. The solution was fully vortexed and centrifuged at 13,000 × rpm for 10 min, and the supernatant was collected for data analysis by UPLC-MS/MS.” left out
(§3) All experiments results were detected by UPLC-MS/MS, which equipped with a Waters Acquity UPLC system (Milford, MA, United States) and a Waters Xevo TQ-S triple quadrupole tandem mass spectrometer with an electrospray ionization source (Milford, MA, United States). […]
as §2

CYP3A = assay: Reversible inhibition kinetics (Lineweaver-Burk), CYP3A in RLMs; format: in vitro ADME, rat
Method: as §1, with “After 5.0 min of preincubation in the shaking water bath, the reaction was started with the addition of 1.0 mM NADPH. The incubated temperature at 37°C for 30 min. After the incubation, the enzyme reaction was stopped by cooling at −80°C, and 200 μL of acetonitrile and 20 μL of internal standard diazepam (200 ng/mL) were added for protein precipitation. The solution was fully vortexed and centrifuged at 13,000 × rpm for 10 min, and the supernatant was collected for data analysis by UPLC-MS/MS.” left out
as §3, §2

CYP2D = assay: Reversible inhibition kinetics (Lineweaver-Burk), CYP2D in RLMs; format: in vitro ADME, rat
Method: as §1, with “After 5.0 min of preincubation in the shaking water bath, the reaction was started with the addition of 1.0 mM NADPH. The incubated temperature at 37°C for 30 min. After the incubation, the enzyme reaction was stopped by cooling at −80°C, and 200 μL of acetonitrile and 20 μL of internal standard diazepam (200 ng/mL) were added for protein precipitation. The solution was fully vortexed and centrifuged at 13,000 × rpm for 10 min, and the supernatant was collected for data analysis by UPLC-MS/MS.” left out
as §3, §2

pIC50 (CYP2C19; CYP2C19, 30 min preincubation with 1.0 mM NADPH): 5.55
pIC50 (CYP2C19; CYP2C19, 30 min preincubation without NADPH): 5.23
activity of CYP2C19 with the NADPH (CYP2C19; preincubation with NADPH vs without): significantly reduced
IC50 at 30 min (CYP2C-3; RLMs 0.20 mg/mL, mephenytoin at Km, 37°C, 30 min, read-out: IC50): 20.3 µM
IC50 at 30 min (CYP2C-3; inhibitory effect (strength judged by IC50), RLMs): > 10 µM
Inhibition type (CYP3A; midazolam, Lineweaver-Burk plot): uncompetitive inhibition
Ki at 30 min (CYP3A; rat, rat liver microsomes, probe midazolam): 4.41 µM
Inhibition type (CYP2D; dextromethorphan, Lineweaver-Burk plot): uncompetitive inhibition
Ki at 30 min (CYP2D; rat, rat liver microsomes, probe dextromethorphan): 101 µM
SMILES: Cc1ccc(Sc2ccccc2N2CCNCC2)c(C)c1 [vortioxetine]
plasma protein (binding) [1]: 99%
IC50 shift at 30 min (CYP2C19; human, human liver microsomes, probe mephenytoin (90 μM), CYP2C19, ratio IC50 (−) NADPH to IC50 (+) NADPH, read-out: IC50 fold shift): 2.08
